Test results published in US4629491A, “Oxidized sulfur derivatives of diaminophosphinyl compounds as urease inhibitors and urease inhibited urea based fertilizer compositions” (Allied Corporation, priority 1983, dated 1986).

Tested on: soil urease
Test: Soil urease inhibition efficacy test (urea remaining after incubation in soil)
Format: biochemical
Conditions: 40 micrograms per gram soil, incubated at 25° C. for three days, run in triplicate
Procedure: Efficacy tests were conducted to evaluate the efficacy of certain representative oxidized sulfur derivatives of diaminophosphinyl compounds as urease inhibitors. The inhibition tests were run in New York (Cazenovia Silt loam, pH 7.3) and Wisconsin (Plano silt loam pH 5.3) soils. Evaluations (run in triplicate) consisted of applying 800 micrograms of the test compound in 5 mL of water and 42.8 mg of urea in 1 mL of water to 20 g of air-dry soil in a glass bottle. The bottle was capped with perforated aluminum foil and incubated at 25° C. for three days prior to extraction with 100 mL of a 2M potassium chloride solution containing 0.5 mg of phenylmercuric acetate. The extracts were then analyzed for remaining urea using an autoanalyzer. Percent inhibition was calculated as [formula] where A is urea recovered from unincubated sample (urea added to soil and immediately extracted); B is urea recovered from inhibited sample; and C is urea recovered from the control (uninhibited sample).

[1] = Cazenovia silt loam (New York) pH 7.3
[2] = Wisconsin (Plano silt loam) pH 5.3

| Structure (SMILES) | % Inhibition [1] [%] | % Inhibition [2] [%] |
| --- | --- | --- |
| Cc1ccc(S(=O)(=O)NP(N)(N)=O)cc1 [N-(Diaminophosphinyl)-p-toluene-sulfonamide] | 86 | 51 |
| NP(N)(=O)NS(=O)(=O)c1ccccc1 [N-(Diaminophosphinyl)benzenesulfonamide] | 91 | 23 |
